Blank lines part the entries; values can stand above or below the compound they belong to.
Assays:
[1] = tested on: inflammasome induced IL-1β production; test: IL-1β secretion (ELISA) in LPS/ATP stimulated, PMA differentiated THP-1 cells; assay type: cell-based; conditions: for IC50: Homo sapiens, LPS (2 ng/ml, 4h) plus ATP (5 mM, 5 min), 1 hour pre-treatment, read-out: IC50 of inhibition of IL-1β secretion
Procedure: (§1) Evaluation of the effect of test compounds on inflammasome induced IL-1β or IL-18 generation and mTOR or caspase-1 activity was performed using PMA-differentiated THP-1 cells stimulated with LPS (2 ng/ml, 4h (LPS (sigma, cat #L3012)) plus ATP (5 mM, 5 min. (Sigma, cat #A1852)). PMA-differentiated THP-1 cells untreated with LPS/ATP were used as control. PMA (phorbol 12-myristate 13-acetate) stimulation was done by adding 150 nM PMA to the cell culture for 24 hours. followed by 24 hours of incubation in culture medium and removal of non-adherent cells.
(§2) The supernatant was collected immediately after experimental procedures for measurement of IL-1β ELISA (R&D Systems, cat #DY201) or IL-18 ELISA (R&D Systems, cat #7620) levels.
(§3) PMA-differentiated THP-1 cells, 1.5×10^5 cells/well, 96-well format
(§4) 1. Pre-treatment for 1 hour with experimental compounds. 2. LPS stimulation (2 ng/mL) for 4h of all conditions except unstimulated (LPS/ATP unstimulated) cells 3. ATP (5 mM) stimulation for 5 minutes of all conditions except unstimulated (LPS/ATP unstimulated) cells 4. Material collection: Supernatant and cell lysates (snap frozen, stored at −80° C.)

[2] = tested on: myocardial ischemia reperfusion injury (MI/RI) rats; conditions: I/R rats, 2.5, 5 and 10 mg/kg, 30 min occlusion, 2 h reperfusion; cited from earlier work
[3] = tested on: inflammasome induced IL-18 production; test: IL-18 secretion (ELISA) in LPS/ATP stimulated, PMA differentiated THP-1 cells; assay type: cell-based; conditions: dose dependent
Procedure: as §1, §2, §3, §4

mTOR = molecular target: T1, mTOR (Homo sapiens, UniProt P42345); test: mTOR activity by phospho p70 S6K (Thr389) ELISA in PMA differentiated THP-1 cells; assay type: cell-based; conditions: LPS/ATP stimulated and PMA differentiated THP-1 cells; read-out: IC50 of mTOR inhibition (phospho p70 S6K)
T1 construct: PMA-differentiated THP-1 cells, 1.5×10^5 cells/well, 96-well format; endogenous in cells; host or cells: PMA-differentiated THP-1 cells
Procedure: as §1
(§5) The cell lysates were collected accordingly the manufacturer's instructions for analysis of phospho p70 S6K (Thr389) (eBioscience, cat #85-86052) levels by ELISA, to determine the mTOR activity or to determine caspase-1 (R&D Systems cat #AF6215) levels by Western blot. As secondary antibody for the Western blot a HRP-conjugated anti-IG antibody (R&D Systems cat #HAF017) was used and immunoreactive bands were visualized by the Enhanced Chemiluminescence method (Thermo Scientific, Rockford, Ill.). All assays were performed accordingly to the respective manufacturers instructions.
as §3
1. Pre-treatment for 1 hour with experimental compounds. 2. LPS stimulation (2 ng/mL) for 4h of all conditions except unstimulated (LPS/ATP unstimulated) cells 3. […]

[4] = tested on: inflammasome induced caspase-1 production; test: Caspase-1 levels by Western blot in LPS/ATP stimulated, PMA differentiated THP-1 cells; assay type: cell-based
Procedure: as §1, §5
1. Pre-treatment for 1 hour with experimental compounds. 2. […]
LPS/ATP stimulated, PMA differentiated THP-1 cells were incubated with a compound of formula I and caspase-I formation was analyzed and compared to a control without the compound.

[5] = tested on: 1K/DOCA/salt-treated mice; conditions: cited from earlier work
MCAO rats = conditions: pretreatment once a day for 7 days, 2 h MCAO, 22 h reperfusion; cited from earlier work

Structure (SMILES): Oc1ccc(/C=C/c2cc(O)cc(O)c2)cc1 [Resveratrol, resveratrol]
IC50 [1]: 87.3 µM
infarct volume and myocardial fibrosis [2]: significantly reduced

Structure (SMILES): CO[C@H]1C[C@@H]2CC[C@@H](C)[C@@](O)(O2)C(=O)C(=O)N2CCCC[C@H]2C(=O)O[C@H]([C@H](C)C[C@@H]2CC[C@@H](O)[C@H](OC)C2)CC(=O)[C@H](C)/C=C(\C)[C@@H](O)[C@@H](OC)C(=O)[C@H](C)C[C@H](C)/C=C/C=C/C=C/1C [Rapamycin]
effect on production of IL-1β ([1]; LPS/ATP stimulated, Rapamycin 25, 50 and 100 nM): no effect

Structure (SMILES): CC(C)(O)c1coc(S(=O)(=O)NC(=O)Nc2c3c(cc4c2CCC4)CCC3)c1 [MCC950]
effect on hypertension [5]: reversed hypertension

Further lines, with some results ahead:

IC50 [1]: 6.1 µM
IC50 (mTOR): 98.8 µM
Structure (SMILES): O=C(/C=C/c1ccccc1O)c1ccc(O)cc1O [2,2′,4′-trihydroxychalcone]
effect on secretion of IL-18 [3]: inhibits the secretion of IL-18
effect on caspase-1 production [4]: inhibits caspase-1 production

IC50 [1]: 11.9 µM
IC50 (mTOR): 174 µM
Structure (SMILES): O=C(/C=C/c1ccc(O)cc1)c1ccc(O)cc1O [Isoliquiritigenin]
cerebral infarct volume and edema (MCAO rats): significantly reduced
